Test results reported in patent publication EP0626016B1, “[…] […]” (BRITISH TECHNOLOGY GROUP LIMITED, priority 1992, dated 1993).
Where “and” joins values, the source holds several entries; their conditions need not be identical. Equal entries are not always repeated. Where two headings read alike, the source gives them in different places.

Biological target: T1, HRP Type VIA (Armoracia rusticana, UniProt P00433)
T1 sequence (P00433 31-338): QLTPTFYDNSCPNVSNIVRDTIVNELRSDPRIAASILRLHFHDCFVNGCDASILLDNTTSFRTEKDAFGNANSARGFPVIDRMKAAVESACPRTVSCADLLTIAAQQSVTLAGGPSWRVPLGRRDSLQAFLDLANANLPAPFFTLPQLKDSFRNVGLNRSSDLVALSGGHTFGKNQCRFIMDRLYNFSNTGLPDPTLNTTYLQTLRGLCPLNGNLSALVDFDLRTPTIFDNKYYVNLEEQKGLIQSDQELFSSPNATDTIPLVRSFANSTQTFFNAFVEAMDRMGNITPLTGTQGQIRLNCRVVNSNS

[1] = 0.01 mg/ml, 10µl test compound, control value in brackets not reported
[2] = 0.1 mg/ml, 10µl test compound, control value in brackets not reported
[3] = 1 mg/ml, 10µl test compound, control value in brackets not reported

Structure (SMILES)	(a) Decrease in background (without HRP with test cpd.) (0.01 mg/ml, 10µl test compound)	(b) Increase in signal (with HRP, with test cpd.) (0.01 mg/ml, 10µl test compound)	(d) Signal: Background: ratio (control = with no enhancer) [1]	(a) Decrease in background (without HRP with test cpd.) (0.1 mg/ml, 10µl test compound)	(b) Increase in signal (with HRP, with test cpd.) (0.1 mg/ml, 10µl test compound)	(d) Signal: Background: ratio (control = with no enhancer) [2]	(a) Decrease in background (without HRP with test cpd.) (1 mg/ml, 10µl test compound)	(b) Increase in signal (with HRP, with test cpd.) (1 mg/ml, 10µl test compound)	(c) Increase in signal: background ratio (1 mg/ml, 10µl test compound)	(c) Increase in signal: background ratio (0.01 mg/ml, 10µl test compound)	(c) Increase in signal: background ratio (0.1 mg/ml, 10µl test compound)	(a) Decrease in background (without HRP with test cpd.)	(b) Increase in signal (with HRP, with test cpd.)	(c) Increase in signal: background ratio	(d) Signal: Background: ratio (control = with no enhancer) [3]	(d) Signal: Background: ratio (control = with no enhancer)
OB(O)c1ccccc1Cl [Compound 1027, 2-chlorophenylboronic acid]	Y	N	2.1 (2.0)	Y	N	3.2 (2.9)	Y	N	N (N = no)	N (N = no)	N (N = no)					
OB(O)c1cccc(Cl)c1 [Compound 1028, 3-chlorophenylboronic acid]												Y	N and Y			
OB(O)c1ccc(Cl)cc1 [Compound 1029, 4-chlorophenylboronic acid]												Y	Y	Y (key: Column (c) shows whether there was an increase in the signal:background ratio by over 25% of the control value (Y = yes; N = no)		
OB(O)c1ccc(Nc2ccc(Cl)cc2)cc1 [Compound 1033, 4-(4'-chloroanilino)phenylboronic acid]	Y	Y	4.1 (1.8)	Y	Y	67.7 (2.8)	Y	Y	Y (Column (c) shows whether there was an increase in the signal:background ratio by over 25% of the control value (Y = yes)	Y (Column (c) shows whether there was an increase in the signal:background ratio by over 25% of the control value (Y = yes)	Y (Column (c) shows whether there was an increase in the signal:background ratio by over 25% of the control value (Y = yes)				173.9 (4.5)	
CCCCOB(OCCCC)c1ccc(-c2ccc(Br)cc2)cc1 [Compound 1038, 4-(4'-bromophenyl)phenyl-di-n-butoxyborane]	Y Y	Y Y	442.2	Y Y	Y Y	2118.5	Y	Y	Y (Column (c) shows whether there was an increase in the signal:background ratio by over 25% of the control value (Y = yes)	Y Y (Column (c) shows whether there was an increase in the signal:background ratio by over 25% of the control value (Y = yes)	Y Y (Column (c) shows whether there was an increase in the signal:background ratio by over 25% of the control value (Y = yes)				903.8 (4.5)	
Clc1cc(Cl)c(OB(Oc2cc(Cl)c(Cl)cc2Cl)c2cc(Cl)c(Cl)cc2Cl)cc1Cl [Compound 1039, di-(3',4',6'-trichlorophenoxy)-3,4,6-trichlorophenylborane]												Y	N	N (key: column (a) shows whether the test compound lowered the light output from the luminol-hydrogen peroxide solution (Y = yes; N = no)		3.4 (2.9)
Clc1cc(Cl)cc(OB(Oc2cc(Cl)cc(Cl)c2)c2cc(Cl)cc(Cl)c2)c1 [Compound 1040, di-(3',5'-dichlorophenoxy)-3,5-dichlorophenylborane]												Y	N			4.7 (4.5) and 3.9 (2.9)
Clc1ccc(OB(Oc2ccc(Cl)cc2)c2ccc(Cl)cc2)cc1 [Compound 1041, 4-chlorophenyl-di-(4'-chlorophenoxy)borane]	Y	Y	6.3 (1.9)	Y	Y	360.2 (2.8)	Y	Y	Y (Column (c) shows whether there was an increase in the signal:background ratio by over 25% of the control value (Y = yes)	Y (Column (c) shows whether there was an increase in the signal:background ratio by over 25% of the control value (Y = yes)	Y (Column (c) shows whether there was an increase in the signal:background ratio by over 25% of the control value (Y = yes)				2606.2(4.5)	
CCCCOB(OCCCC)c1ccc(Br)cc1 [Compound 1044, 4-bromophenyl-di-n-butoxyborane]	Y	Y	38.5 (1.9)	Y	Y	623.1 (2.7)	Y	N	Y (Column (c) shows whether there was an increase in the signal:background ratio by over 25% of the control value (Y = yes)	Y (Column (c) shows whether there was an increase in the signal:background ratio by over 25% of the control value (Y = yes)	Y (Column (c) shows whether there was an increase in the signal:background ratio by over 25% of the control value (Y = yes)				147.1 (4.5)	

Continued, in another order:

(a) Decrease in background (without HRP with test cpd.) (0.01 mg/ml, 10µl test compound)	(b) Increase in signal (with HRP, with test cpd.) (0.01 mg/ml, 10µl test compound)	(d) Signal: Background: ratio (control = with no enhancer) [1]	(a) Decrease in background (without HRP with test cpd.) (0.1 mg/ml, 10µl test compound)	(b) Increase in signal (with HRP, with test cpd.) (0.1 mg/ml, 10µl test compound)	(d) Signal: Background: ratio (control = with no enhancer) [2]	(a) Decrease in background (without HRP with test cpd.) (1 mg/ml, 10µl test compound)	(b) Increase in signal (with HRP, with test cpd.) (1 mg/ml, 10µl test compound)	(c) Increase in signal: background ratio (1 mg/ml, 10µl test compound)	Structure (SMILES)	(c) Increase in signal: background ratio (0.01 mg/ml, 10µl test compound)	(c) Increase in signal: background ratio (0.1 mg/ml, 10µl test compound)	(a) Decrease in background (without HRP with test cpd.)	(b) Increase in signal (with HRP, with test cpd.)	(c) Increase in signal: background ratio	(d) Signal: Background: ratio (control = with no enhancer) [3]	(d) Signal: Background: ratio (control = with no enhancer)
Y	N	2.1 (2.0)	Y	N	3.3 (2.9)	Y	N	N (N = no)	O=C(CCl)Nc1cccc(B(O)O)c1 [Compound 1031, 3-chloroacetylaminophenylboronic acid]	N (N = no)	N (N = no)					
Y	N		Y	N	3.4 (2.9)	Y	N	N (N = no)	CCC(C)CNc1cccc(B(O)O)c1 (stereo not shown) [Compound 1032, 3-(2'-methylbutylamino)phenylboronic acid]	N (N = no)	N (N = no)					
Y	N	3.6 (1.9)	Y	Y	41.2 (2.9)	Y	N	N (N = no)	Cc1ccc(B(O)O)cc1 [Compound 1034, 4-methylphenylboronic acid]	Y (Column (c) shows whether there was an increase in the signal:background ratio by over 25% of the control value (Y = yes)	Y (Column (c) shows whether there was an increase in the signal:background ratio by over 25% of the control value (Y = yes)					
Y	N	2.1 (2.0)	Y	N		Y	N	N (N = no)	OB(O)c1ccc(B(O)O)cc1 [Compound 1035, 1,4-phenyldiboronic acid]	N (N = no)	N (N = no)					
Y	Y	35.5 (1.9)	Y	Y	503.3 (2.9)	Y	N	N (N = no)	OB(O)c1ccc(-c2ccc(B(O)O)cc2)cc1 [Compound 1037, 4,4'-bis(phenylboronic acid)]	Y (Column (c) shows whether there was an increase in the signal:background ratio by over 25% of the control value (Y = yes)	Y (Column (c) shows whether there was an increase in the signal:background ratio by over 25% of the control value (Y = yes)					
